Data from US8560243B2, “Methods for determining therapeutic index from gene expression profiles” (Microsoft Corporation, priority 1998, dated 2013).

Tests used:
[1] = test system: yeast; test: Growth of yeast under methotrexate titration; assay type: cell-based, S. cerevisiae; conditions: 100 μM titration
[2] = test system: yeast gene YOL031C; test: Yeast gene expression response to methotrexate exposure, Hill function fit; assay type: cell-based, S. cerevisiae; conditions: least squares fit
Excerpt: FIG. 4 illustrates the fit of a Hill function to the response of gene YOL031C illustrated in FIG. 3.
[formula] The adjustable parameters are selected independently for each cellular constituent of the drug response and for each cellular constituent of the pathway response. Preferably, the adjustable parameters are selected so that for each cellular constituent of each pathway response the sum of the squares of the distances of H(pi,l) from Ri,l(Pi,l) is minimized, and so that for each cellular constituent of the drug response the sum of the squares of the distances of H(tl) from Dk(tl) is minimized. This preferable parameter adjustment method is known in the art as a least squares fit of H( ) to Ri,k( ) or to Dk( ). Other possible model functions are based on polynomial fitting, for example by various known classes of polynomials.
Model fitting with a Hill function is illustrated with respect to FIGS. 3 and 4. As discussed, FIG. 3 illustrates an example of a pathway perturbed by methotrexate and identified by measurement. This figure illustrates the mRNA expression levels of 30 genes of the yeast S. cerevisiae that, of the approximately 6000 genes in the genome of this yeast, had the largest expression changes in response to six different exposure levels of methotrexate. FIG. 4 illustrates a fit of the pathway response of one of these gene expression levels by a Hill function. In particular, the yeast gene YOL031C was fit by a Hill function with parameters n=2, a=−0.61, and log10 (u0)=1.26 selected by the previously described least squares method.

[3] = test system: calcineurin pathway
Excerpt: In this example, the expression of a number of genes are monitored as a wild type yeast culture is subjected to a graded levels of the drug FK506 (FIG. 8A). Similar experiments are repeated with a yeast culture whose CNA1 and CNA2 genes are deleted (FIG. 8B). CNA1 and CNA2 are two components of the calcineurin multi-protein complex. Because the drug FK506 acts upon the calcineurin protein to exert its activity on the calcineurin pathway. Deletion of CNA1 and CNA2 eliminates the primary target pathway for FK506. […]
Control cultures were treated with the same volume of just ethanol. Growth was monitored by OD600 and cells were harvested at OD600=1.4+/−0.1 by centrifugation for 2 min at ambient temperature in a Sorvall RC5C+ centrifuge in a SLA-1500 rotor. […]
Extent of hybridization was determined by scanning with a prototype multi-frame CCD camera slides produced by Applied Precision, Inc. Images were processed by informatics and imported into the Inpharna database and analyzed using the MatLab data analysis package.
The horizontal axis is concentrations of the FK506 in logarithmic scale and the vertical axis is the values of the logarithm of the expression ratio of the genes most affected by FK506 on the vertical axis. […] P-Value is the probability that the up or down regulation is due to measurement error, as determined from observed statistics of the errors in Log 10 (expression ratio).

[4] = test system: off-target genes; test: Transcriptional response to FK506 titration in yeast strain with CNA1 and CNA2 deleted; assay type: cell-based, S. cerevisiae
Excerpt: The response of those genes to FK506 were considered as off-target activity. Each ORF (Open Reading Frame) may be corresponding to an off-target gene.

Q: CN(Cc1cnc2nc(N)nc(N)c2n1)c1ccc(C(=O)N[C@@H](CCC(=O)O)C(=O)O)cc1 [methotrexate] was tested. Which growth defect [1] did it give?
A: 50%

Q: And the “Hill function parameter a” value [2]?
A: −0.61

Q: What about the “Hill function parameter n” value [2] of the same compound?
A: 2

Q: What about the “Hill function parameter log10 (u0)” value ([2]; exposure levels in μM) of the same compound?
A: 1.26

Q: What does the source list for C=CC[C@@H]1/C=C(\C)C[C@H](C)C[C@H](OC)[C@H]2O[C@@](O)(C(=O)C(=O)N3CCCC[C@H]3C(=O)O[C@H](/C(C)=C/[C@@H]3CC[C@@H](O)[C@H](OC)C3)[C@H](C)[C@@H](O)CC1=O)[C@H](C)C[C@@H]2OC [FK506]?
A: concentration at which expression of most genes affected via the primary target (calcineurin pathway) reaches two fold induction or repression [3]: 200 ng/mL; concentration at which expression of most off-target genes reaches two fold induction or repression [3]: 12000 ng/mL; Log10(Ratio) ([4]; ORF ARG1, deletion strain): 0.9516; Log10(Ratio) ([4]; ORF ARG4, deletion strain): 0.7774; Log10(Ratio) ([4]; ORF ARG5, 6, deletion strain): 0.9136; Log10(Ratio) ([4]; ORF ARO3, deletion strain): 0.6261; Log10(Ratio) ([4]; ORF CPA1, deletion strain): 0.5645; Log10(Ratio) ([4]; ORF CPA2, deletion strain): 0.645; Log10(Ratio) ([4]; ORF ECM13, deletion strain): 0.8176; Log10(Ratio) ([4]; ORF GRE2, deletion strain): 0.6836; Log10(Ratio) ([4]; ORF HIS3, deletion strain): 0.6152; Log10(Ratio) ([4]; ORF HIS4, deletion strain): 0.8178; Log10(Ratio) ([4]; ORF HIS5, deletion strain): 0.8266; Log10(Ratio) ([4]; ORF NCE3, deletion strain): 0.5112; Log10(Ratio) ([4]; ORF PDR5, deletion strain): 0.597; Log10(Ratio) ([4]; ORF RIB5, deletion strain): 0.7436; Log10(Ratio) ([4]; ORF SNO1, deletion strain): 0.7711; Log10(Ratio) ([4]; ORF SNQ2, deletion strain): 0.6624; Log10(Ratio) ([4]; ORF SNZ1, deletion strain): 0.9834; Log10(Ratio) ([4]; ORF YER175C, deletion strain): 1.0121; Log10(Ratio) ([4]; ORF YGL117W, deletion strain): 0.8608; Log10(Ratio) ([4]; ORF YHM1, deletion strain): 0.5235; Log10(Ratio) ([4]; ORF YMR085W, deletion strain): 0.7679; Log10(Ratio) ([4]; ORF YMR097C, deletion strain): 0.6945; Log10(Ratio) ([4]; ORF YOL150C, deletion strain): 0.7246; Log10(Ratio) ([4]; ORF YOR1, deletion strain): 0.5928; Log10(Ratio) ([4]; ORF YOR203W, deletion strain): 0.6378; Log10(Ratio) ([4]; ORF YPL088W, deletion strain): 0.4764; toxic concentration: off-target transcriptional responses of many genes reach two-fold induction or repression ([4]; by inspection of FIG. 8B, calcineurin-deleted strain): approximately 12 mg/ml
